Experimental data published in US20070020183A1, “Perfluoroalkyl-containing complexes, process for their production as well as their use” (priority 2005, published 2007).

How the values were obtained:
[1] = Relaxivity in water (NMR pulse spectrometer Minispec PC 20); type: physicochemical; conditions: 40° C., 0.47 T
Description: The T1 and T2 relaxation times of water and plasma (from cows) with increasing concentrations of the gadolinium complexes (I-XIII) contained therein were determined at 40° C. with use of an NMR pulse spectrometer (Minispec PC 20) at 0.47 T, and the relaxivity was determined.

mice = test: Acute toxicity after one-time intravenous administration in mice; type: in vivo; conditions: one-time i.v., observation period of 7 days, determined preliminarily
Description: After intravenous administration of the gadolinium complexes (I-X) in mice (n=3; rate of injection: 2 ml/min), the acute systemic compatibility (LD50) was determined preliminarily. In each case, several dosages with an observation period of 7 days were examined. The acute toxicities that are to be expected can be seen in Table 1.

[2] = Excretion after intravenous administration in rats (ICP-AES); type: in vivo; conditions: i.v., 50 μmol of total gadolinium/kg of body weight, 14 days after administration
Excerpt: After intravenous administration of 50 μmol of total gadolinium/kg of body weight of the gadolinium complexes (I-X) in rats (n=3), the metal content was l determined in fractions up to 14 days after administration by means of atomic emission spectrometry (ICP-AES) in the excretion media of urine and feces, as well as in the body (the rest of the body).

[3] = Plasma kinetics after intravenous administration in rats (ICP-AES); type: in vivo; conditions: i.v., 50 μmol of total gadolinium/kg of body weight
Description: After intravenous administration of 50 μmol of total gadolinium/kg of body weight of the gadolinium complexes (I-X) in rats (n=3), blood samples were taken via a catheter in the common carotid artery at different points in time ([…] to 24 hours p.i.), the metal content was determined by means of atomic emission spectrometry (ICP-AES) and converted to plasma values via a conversion factor (0.625). The elimination half-life was calculated by means of special software (WinNonlin) from the plasma concentrations.

arteriosclerotic plaque = test: MRT visualization of arteriosclerotic plaque; type: in vivo, Watanabe rabbits (WHHL rabbits); conditions: WHHL rabbits, i.v. 50 μmol or 100 μmol of Gd/kg, 6 or 24 hours, T1-weighted IR-TFL; not in vascular wall of healthy control animals
Description: The pictures of FIG. 2 show MR images of the aorta 6 or 24 hours after intravenous administration of 50 μmol or 100 μmol of Gd/kg of body weight of gadolinium complex I (title substance of Example 1f), gadolinium complex IV (title substance of Example 11e), and gadolinium complex VIII (title substance of Example 16c) in Watanabe rabbits (WHHL rabbits; genetically-induced arteriosclerosis) and in control animals without arteriosclerosis (white New Zealands). […] The localization of the plaque, especially in the aortic arch as well as in the vascular passages, was confirmed by means of Sudan-3 staining. With this test, the suitability of the compounds according to the invention as markers for arteriosclerotic plaque could be shown.

[4] = test system: iliac lymph nodes and i.m.-implanted VX2 tumors; test: MRT visualization of lymph node metastases and primary tumors in VX2-tumor-carrying rabbits; type: in vivo; conditions: rabbits with VX2 tumors, i.v. 50 μmol of Gd/kg
Description: The pictures of FIG. 1 show MR images of iliac lymph nodes precontrast as well as up to 24 hours after intravenous administration of 50 μmol of Gd/kg of body weight of gadolinium complex VIII (title substance of Example 16c) in rabbits with i.m.-implanted VX2 tumors. […] Zones where there was no signal rise within the lymph node were diagnosed as metastases and confirmed histologically (H/E staining of the lymph node sections).
At later times (24 hours p.i.), this enhancement also propagates toward the center of the tumor.

Structure (SMILES)	Relaxivity R1(w) [1]	LD50 Mouse (mice)	Body Retention 14 days [2] [%]	Elimination Half-Life of Blood [3]	Gd Content of Blood 24 Hours p.i. [3] [%]	MR signal in the arteriosclerotic plaque (arteriosclerotic plaque)	MR signal in healthy lymph node tissue ([4]; T1-weighted turbo-spin-echo, 15 to 60 minutes p.i.)	MR enhancement in the primary tumor ([4]; immediately after administration, especially in the periphery)
CC(C(=O)NCC(=O)NCCCC[C@H](NC(=O)CO[C@H]1O[C@H](CO)[C@@H](O)[C@H](O)[C@@H]1O)C(=O)NCCCC(F)(F)C(F)(F)C(F)(F)C(F)(F)C(F)(F)C(F)(F)F)N1CCN(CC(=O)[O-])CCN(CC(=O)[O-])CCN(CC(=O)[O-])CC1.[Gd+3] (stereo partly drawn) [Gadolinium complex II, Gadolinium complex of 6-N-[1,4,7-tris-(carboxylatomethyl)-1,4,7,10-tetraazacyclododecane-10-N-(pentanoyl-3-aza-4-oxo-5-methyl-5-yl)]-2-N-(1-O-α-d-carbonylmethylmannopyranose)-L-lysine-[(1H,1H,2H,2H-perfluorooctyl)-methyl]-amide]	R1(w): 5.7 l/(mmol * s)	10 mmol/kg	0.0	0.9 hour^ hours	0.0			
CC(C(=O)NCC(=O)NCCCC[C@H](NC(=O)CO[C@H]1O[C@H](CO)[C@@H](O)[C@H](O)[C@@H]1O)C(=O)NCCCOCCC(F)(F)C(F)(F)C(F)(F)C(F)(F)C(F)(F)C(F)(F)C(F)(F)C(F)(F)F)N1CCN(CC(=O)[O-])CCN(CC(=O)[O-])CCN(CC(=O)[O-])CC1.[Gd+3] (stereo partly drawn) [Gadolinium complex III, Gadolinium complex of 6-N-[1,4,7-tris-(carboxylatomethyl)-1,4,7,10-tetraazacyclododecane-10-N-(pentanoyl-3-aza-4-oxo-5-methyl-5-yl)]-2-N-(1-O-α-d-carbonylmethylmannopyranose)-L-lysine-[(1H,1H,2H,2H,4H,4H,5H,5H-3-oxa-perfluorotridecyl)-methyl]-amide]	R1(w): 17.8 l/(mmol * s)	≧10 mmol/kg	1.5	6.2 h	1.6			
COCCN(CCOCCC(F)(F)C(F)(F)C(F)(F)C(F)(F)C(F)(F)C(F)(F)C(F)(F)C(F)(F)F)C(=O)[C@H](CCCCNC(=O)CNC(=O)C(C)N1CCN(CC(=O)[O-])CCN(CC(=O)[O-])CCN(CC(=O)[O-])CC1)NC(=O)CO[C@H]1O[C@H](CO)[C@@H](O)[C@H](O)[C@@H]1O.[Gd+3] (stereo partly drawn) [Gadolinium complex IV, Gadolinium complex of 6-N-[1,4,7-tris-(carboxylatomethyl)-1,4,7,10-tetraazacyclododecane-10-N-(pentanoyl-3-aza-4-oxo-5-methyl-5-yl)]-2-N-(1-O-α-d-carbonylmethylmannopyranose)-L-lysine-N-(2-methoxyethyl)-N-(1H,1H,2H,2H,4H,4H,5H,5H-3-oxa-perfluorotridecyl)-amide]	R1(w): 16.6 l/(mmol * s)	≧15 mmol/kg	2.6	5.3 h	1.8	strong signal rise		
CC(C(=O)NCC(=O)N[C@@H](CCCCNC(=O)CO)C(=O)NCCCC(F)(F)C(F)(F)C(F)(F)C(F)(F)C(F)(F)C(F)(F)C(F)(F)C(F)(F)F)N1CCN(CC(=O)[O-])CCN(CC(=O)[O-])CCN(CC(=O)[O-])CC1.[Gd+3] (stereo partly drawn) [Gadolinium complex IX, Gadolinium complex of 2-N-[1,4,7-tris-(carboxylatomethyl)-1,4,7,10-tetraazacyclododecane-10-N-(pentanoyl-3-aza-4-oxo-5-methyl-5-yl)]-6-N-(2-hydroxyacetyl)-L-lysine-[(1H,1H,2H,2H-perfluorodecyl)-methyl]-amide]	R1(w): 18.8 l/(mmol * s)	>10 mmol/kg	0.2	4.3 h	0.5			
COCCN(CCC(F)(F)C(F)(F)C(F)(F)C(F)(F)C(F)(F)C(F)(F)C(F)(F)C(F)(F)F)C(=O)[C@H](CCCCNC(=O)CNC(=O)C(C)N1CCN(CC(=O)[O-])CCN(CC(=O)[O-])CCN(CC(=O)[O-])CC1)NC(=O)CO[C@H]1O[C@H](CO)[C@@H](O)[C@H](O)[C@@H]1O.[Gd+3] (stereo partly drawn) [Gadolinium complex V, Gadolinium complex of 6-N-[1,4,7-tris-(carboxylatomethyl)-1,4,7,10-tetraazacyclododecane-10-N-(pentanoyl-3-aza-4-oxo-5-methyl-5-yl)]-2-N-(1-O-α-d-carbonylmethylmannopyranose)-L-lysine-N-(2-methoxyethyl)-N-(1H,1H,2H,2H-perfluorodecyl)-amide]	R1(w): 18.3 l/(mmol * s)	15 mmol/kg	0.0	6.7 h	2.1			
CC(C(=O)NCC(=O)NCCCC[C@H](NC(=O)COCC(CO)(CO)CO)C(=O)NCCCC(F)(F)C(F)(F)C(F)(F)C(F)(F)C(F)(F)C(F)(F)C(F)(F)C(F)(F)F)N1CCN(CC(=O)[O-])CCN(CC(=O)[O-])CCN(CC(=O)[O-])CC1.[Gd+3] (stereo partly drawn) [Gadolinium complex VI, Gadolinium complex of 6-N-[1,4,7-tris-(carboxylatomethyl)-1,4,7,10-tetraazacyclododecane-10-N-(pentanoyl-3-aza-4-oxo-5-methyl-5-yl)]-2-N-[(3-hydroxy-2,2-dihydroxymethylpropoxy)-acetyl]-L-lysine-[(1H,1H,2H,2H-perfluorodecyl)-methyl]-amide]	R1(w): 16.9 l/(mmol * s)	>10 mmol/kg	0.0	7.7 h	2.6			
COC[C@H]1O[C@H](OCC(=O)NC(CCCCNC(=O)CNC(=O)C(C)N2CCN(CC(=O)[O-])CCN(CC(=O)[O-])CCN(CC(=O)[O-])CC2)C(=O)N(C)CCC(F)(F)C(F)(F)C(F)(F)C(F)(F)C(F)(F)C(F)(F)C(F)(F)C(F)(F)F)[C@@H](OC)[C@@H](OC)[C@@H]1OC.[Gd+3] (stereo partly drawn) [Gadolinium complex VII, Gadolinium complex of 6-N-[1,4,7-tris-(carboxylatomethyl)-1,4,7,10-tetraazacyclododecane-10-N-(pentanoyl-3-aza-4-oxo-5-methyl-5-yl)]-2-N-[1-O-α-d-carbonylmethyl-(2,3,4,6-tetra-O-methyl)mannopyranose]-L-lysine-[(1H,1H,2H,2H-perfluorodecyl)-methyl]-amide]	R1(w): 14.7 l/(mmol * s)	≦15 mmol/kg	5.4	5.4 h	1.2			
CC(C(=O)NCC(=O)N[C@@H](CCCCNC(=O)CO[C@H]1O[C@H](CO)[C@@H](O)[C@H](O)[C@@H]1O)C(=O)N(C)CCC(F)(F)C(F)(F)C(F)(F)C(F)(F)C(F)(F)C(F)(F)C(F)(F)C(F)(F)F)N1CCN(CC(=O)[O-])CCN(CC(=O)[O-])CCN(CC(=O)[O-])CC1.[Gd+3] (stereo partly drawn) [Gadolinium complex VIII, Gadolinium complex of 2-N-[1,4,7-tris-(carboxylatomethyl)-1,4,7,10-tetraazacyclododecane-10-N-(pentanoyl-3-aza-4-oxo-5-methyl-5-yl)]-6-N-(1-O-α-d-carbonylmethylmannopyranose)-L-lysine-[(1H,1H,2H,2H-perfluorodecyl)-methyl]-amide]	R1(w): 20.6 l/(mmol * s)	≧10 mmol/kg	0.0	4.3 h	0.5	strong signal rise	strong signal rise	clear enhancement
